As a reminder, the ED50 is the dose that gives a 50% effect, or the effect in half of the subjects.

What all share (assay type): in vivo
In assay [1] the test system is amphetamine induced stereotypy. Description: Antagonism of Amphetamine Stereotypy. To be noted: rats, 10 mg/kg subcutaneously; d-amphetamine 10 mg/kg s.c. The procedure:
Antagonism of Amphetamine Stereotypy
Based on method of Jansen, Niemegeers and Schellekens (1966), Arzneimittel Forsch., 15, pp. 104-117. Rats were given compound 15 minutes prior to subcutaneous injection of d-amphetamine (10 mg/kg). 30 minutes and 1 hour after the amphetamine, the degree of stereotyped behaviour was scored according to the method of Costal, Naylor and Olley (1972). Europ. J. Pharmacol., 18, pp. 83-94. The percentage inhibition of stereotypy at the respective time interval was calculated.

Assay [2] deals with catapresan induced fighting behaviour. Description: Catapresan Test (catapresan induced fighting behaviour). To be noted: Mus musculus, po; mice, orally; catapresan 20-25 mg/kg intravenously; read-out: ED50, inhibition of catapresan induced fighting behaviour. On the procedure:
Catapresan (20-25 mg/kg intravenously) was used to induce fighting behaviour in mice. The fighting was assessed as the biting of a dead mouse placed in the cage and was given a score of 1 or 2 depending on intensity. Compound effect was measured as percentage inhibition of fighting compared to that with control animals and the dose reducing fighting by 50% was determined graphically.

The subject of assay [3] is stereotype behaviour induced by apomorphine (dopamine receptor blockade in the central nervous system). The experiment in a line: Inhibition of stereotype behaviour induced by apomorphine. To be noted: rat; for Inhibition of Stereotype Behaviour, active dose: s.c., apomorphine induced, active doses (mg/kg). On the procedure: (§1) 1. Compounds prepared in the Examples were tested for the following pharmacological activities in the rat:
(c) Inhibition of stereotype behaviour induced by apomorphine
This is indicative of dopamine receptor blockade in the central nervous system.

The test system of assay [4] is emetic response to apomorphine. The experiment in a line: Anti-emetic activity in the dog (abolition of emetic response to apomorphine). The settings on record: for ED50: Canis lupus familiaris, sc, apomorphine emesis. The procedure: 2. Anti- emetic activity in the dog
(a) Compounds were tested in the dog for their ability to abolish the emetic response to apomorphine.

In assay [5] the test system is intragastric pressure. The experiment in a line: Increase in intragastric pressure in the rat. To be noted: s.c., active doses (mg/kg). On the procedure: as §1
(a) Increase in intragastric pressure
Intragastric pressure changes were recorded from previously starved conscious but restrained rats using a saline filled catheter inserted into the lumen of the stomach via a permanent gastric fistula. The catheter was connected to a physiological pressure transducer and pressure changes recorded on a hot wire pen recorder. In each animal a pre dose period of 40 minutes was allowed to obtain a measure of spontaneous activity. An index of activity was obtained by measuring the average height of pressure waves during 10 minute periods. Values for 4 such periods were obtained during assessment of spontaneous activity and for the 40 minute period after the subcutaneous administration of the Compounds. Student "t" test was applied to the difference in average values obtained for spontaneous and post Compound activity.

The subject of assay [6] is apomorphine induced delay in gastric emptying. Description: Increase in gastric emptying - reversal of apomorphine induced delay in gastric emptying of a test meal. To be noted: rat, s.c., apomorphine HCl 5 mg/kg s.c., active doses (mg/kg); for Increase in Gastric Emptying, active dose (slightly active): slightly active at this dose. The procedure:
as §1
(b) Increase in gastric emptying-reversal of apomorphine induced delay in gastric emptying of a test meal.
Rats equipped with chronic gastric fistual were used and it was through this that 5 ml of a test meal (5 ml phosphate buffer at pH 9) was administered and recovered. The % recovery of the standard meal after remaining in the stomach for 10 minutes was taken as an index of gastric emptying. Delay in gastric emptying was induced by the administration of Apomorphine HCl (5 mg/kg subcutaneously) and was given 15 minutes prior to the subcutaneous administration of the Compound. The % recoveries of the test meal was determined at 15-25 and 45-55 minutes post dosing with the Compound and compared with vehicle only dosed animals set up simultaneously. Six animals were used for each group.

In assay [7] the test system is intragastric pressure. Description: Increase in intragastric pressure in the rat. To be noted: p.o., active doses (mg/kg).

`COc1cc(N)c(Cl)cc1C(=O)NN1CCN(Cc2ccc(N(C)C)cc2)CC1` [Example 23, 4-Amino-5-chloro-2-methoxy-N-[4-(4-dimethylaminobenzyl)-1-piperazinyl]benzamide]: in assay [1], the “Inhibition of amphetamine induced stereotypy” value is reported as 25%. Further, in assay [2], the ED50 turned out to be 60 mg/kg.

Consider `COc1cc(N)c(Cl)cc1C(=O)NN1CCN(Cc2ccccc2)CC1` [Example 1, 4-Amino-5-chloro-2-methoxy-N-[4-benzyl-1-piperazinyl]benzamide], for which the “Inhibition of Stereotype Behaviour, active dose” value (“Inhibition … active dose” for short) in assay [3] came to 0.625 mg. In assay [4], this compound had an ED50 of 0.0125 mg/kg.

In the case of `CCCCN1CCCN(NC(=O)c2cc(Cl)c(N)cc2OC)CC1` [Example 22, 4-Amino-5-chloro-2-methoxy-N-[4-n-butyl-1-(1-4-diazocycloheptyl)]benzamide], the “Inhibition of apomorphine induced emesis” value in assay [4] (at 5 mg/kg subcutaneously) was “completely inhibited”.

As to `COc1cc(N)c(Br)cc1C(=O)NN1CCN(C)CC1` [Example 21, 4-Amino-5-bromo-2-methoxy-N-[4-methyl-1-piperazinyl]-benzamide hemihydrate], in the assay on intragastric pressure [5], the “Increase in Intra-gastric Pressure, active dose” value is 5 mg/kg. In addition, the “Inhibition of Stereotype Behaviour” value in assay [3] (at 50 mg s.c.) was “Inactive”.

On to `COc1cc(N)c(Cl)cc1C(=O)NN1CCN(Cc2ccc(F)cc2)CC1` [Example 14, 4-amino-5-chloro-2-methoxy-N-[4-(4-fluorobenzyl)-1-piperazinyl]-benzamide], for which the “Inhibition … active dose” value in assay [3] was determined as 50 mg.

For the compound `COc1cc(N)c(Cl)cc1C(=O)NN1CC[N+](C)(C)CC1.[Br-]` [Example 17, 4-Amino-5-chloro-2-methoxy-N-[4-methyl-1-piperazinyl]-benzamide methobromide], the “Increase in Intra-gastric Pressure, active dose” value with intragastric pressure [5] came to 0.5 mg/kg. Besides, the “Inhibition of Stereotype Behaviour” value in assay [3] (at 50 mg s.c.) is “Inactive”.

In the case of `CCN1CCN(NC(=O)c2cc(Cl)c(N)cc2OC)CC1` [Example 5, 4-Amino-5-chloro-2-methoxy-N-[4-ethyl-1-piperazinyl]benzamide], the “Increase in Intra-gastric Pressure, active dose” value with intragastric pressure [5] came to 50 mg/kg. Moreover, the “Inhibition of Stereotype Behaviour” value in assay [3] (at 50 mg s.c.) is listed as “Inactive”.

With `CCCN1CCN(NC(=O)c2cc(Cl)c(N)cc2OC)CC1` [Example 15, 4-amino-5-chloro-2-methoxy-N-[4-(1-propyl)-1-piperazinyl]-benzamide], the “Increase in Intra-gastric Pressure, active dose” value in the assay with intragastric pressure [5] worked out at 10 mg/kg. In assay [3] (at 50 mg s.c.), the “Inhibition of Stereotype Behaviour” value was “Inactive”. For the same compound, in assay [6], the “Increase in Gastric Emptying, active dose (slightly active)” value turned out to be 50 mg.

On to `COc1ccc(CN2CCN(NC(=O)c3cc(Cl)c(N)cc3OC)CC2)cc1` [Example 8, 4-Amino-5-chloro-2-methoxy-N-[4-(4-methoxybenzyl)-1-piperazinyl]benzamide], for which the “Inhibition … active dose” value in assay [3] is listed as 3 mg.

On to `COc1cc(N)c(Cl)cc1C(=O)NN1CCN(Cc2ccsc2)CC1` [Example 12, 4-Amino-5-chloro-2-methoxy-N-[4-(3-thenyl)-1-piperazinyl]-benzamide], for which, in assay [3], the “Inhibition … active dose” value is 50 mg.

As to `CCCCN1CCN(NC(=O)c2cc(Cl)c(N)cc2OC)CC1` [Example 6, 4-Amino-5-chloro-2-methoxy-N-[4-n-butyl-1-piperazinyl]benzamide], the “Increase in Intra-gastric Pressure, active dose” value in the assay on intragastric pressure [5] turned out to be 5 mg/kg. Also, the “Inhibition of Stereotype Behaviour” value in assay [3] (at 25 mg s.c.) is recorded as “Inactive”. The compound further returned an ED50 in assay [4] of 1 mg/kg.

Consider `COc1cc(N)c(Cl)cc1C(=O)NN1CCN(C(C)C)CC1` [Example 16, 4-amino-5-chloro-2-methoxy-N-[4-(2-propyl)-1-piperazinyl]-benzamide], for which the “Increase in Intra-gastric Pressure, active dose” value with intragastric pressure [5] was 5 mg/kg. In addition, the “Inhibition of Stereotype Behaviour” value in assay [3] (at 50 mg s.c.) was “Inactive”.

Take `COc1cc(N)c(Cl)cc1C(=O)NN1CCN(C)CC1` [Example 2, 4-Amino-5-chloro-2-methoxy-N-[4-methyl-1-piperazinyl]benzamide]: the “Increase in Intra-gastric Pressure, active dose” value in the assay with intragastric pressure [5] is reported as 1 mg/kg; with intragastric pressure [7], 20 mg/kg. Besides, in assay [3] (at 100 mg s.c.), the “Inhibition of Stereotype Behaviour” value is recorded as “Inactive”. Also, in assay [4], the ED50 came out at 8 mg/kg.

As for `COc1cc(N)c(Cl)cc1C(=O)NN1CCN(C)CC1` [Example 4, 4-amino-5-chloro-2-methoxy-N-[4-methyl-1-piperazinyl]benzamide], the “Increase in Intra-gastric Pressure, active dose” value in the assay on intragastric pressure [7] is listed as 10 mg/kg.

Turning to `COc1cc(N)c(Cl)cc1C(=O)NN1CCCN(C)CC1` [Example 9, 4-Amino-5-chloro-2-methoxy-N-[4-methyl-1-(1,4-diazacycloheptyl)]benzamide], the “Increase in Intra-gastric Pressure, active dose” value with intragastric pressure [5] is on record as 10 mg/kg. In assay [3] (at 25 mg s.c.), the “Inhibition of Stereotype Behaviour” value is recorded as “Inactive”. Moreover, in assay [4] (at 2 mg/kg s.c., inhibition of no. of vomits only), the Anti-emetic activity result was “slight activity”.

For `COc1cc(N)c(Cl)cc1C(=O)NN1CCN(Cc2ccc(Cl)cc2)CC1` [Example 7, 4-Amino-5-chloro-2-methoxy-N-{[4-(4-chlorobenzyl)]1-piperazinyl}benzamide], the “Inhibition … active dose” value in assay [3] was found to be 50 mg.

For `CCCCCN1CCN(NC(=O)c2cc(Cl)c(N)cc2OC)CC1` [Example 13, 4-amino-5-chloro-2-methoxy-N-[4-(1-pentyl)-1-piperazinyl]-benzamide], in assay [3], the “Inhibition … active dose” value is listed as 50 mg. The same compound displayed an ED50 in assay [4] of 0.36 mg/kg.

Take `COc1cc(N)c(Cl)cc1C(=O)NN1CC[N+](C)(Cc2ccccc2)CC1.[Br-]` [Example 18, 4-Amino-5-chloro-2-methoxy-N-[4-methyl-1-piperazinyl]-benzamide benzobromide]: the “Increase in Intra-gastric Pressure, active dose” value in the assay with intragastric pressure [5] was 25 mg/kg. In addition, the “Inhibition of Stereotype Behaviour” value in assay [3] (at 50 mg s.c.) was “Inactive”. The “Increase in Gastric Emptying, active dose” value in assay [6] was determined as 25 mg.

In assay [4], `COc1cc(N)c(Cl)cc1C(=O)NN1CCN(CCC(C)C)CC1` [Example 20, 4-Amino-5-chloro-2-methoxy-N-[4-(3-methylbutyl)-1-piperazinyl]-benzamide] had an ED50 of 0.35 mg/kg.

On to `CCCC[N+]1(C)CCN(NC(=O)c2cc(Cl)c(N)cc2OC)CC1.[Br-]` [Example 19, 4-Amino-5-chloro-2-methoxy-N-[4-n-butyl-1-piperazinyl]-benzamide methobromide], for which, in the assay with intragastric pressure [5], the “Increase in Intra-gastric Pressure, active dose” value is 1 mg/kg. Besides, the “Inhibition of Stereotype Behaviour” value in assay [3] (at 50 mg s.c.) is reported as “Inactive”. In assay [6], the “Increase in Gastric Emptying, active dose (slightly active)” value worked out at 50 mg.

Turning to `COc1cc(N)c(Cl)cc1C(=O)NN1CCN(Cc2cccs2)CC1` [Example 11, 4-Amino-5-chloro-2-methoxy-N-[4-(2-thenyl)-1-piperazinyl]-benzamide], in the assay with intragastric pressure [5] (slightly active at this dose), the “Increase in Intra-gastric Pressure, active dose (slightly active)” value is 50 mg. Further, in assay [3] (at 50 mg s.c.), the “Inhibition of Stereotype Behaviour” value is reported as “Inactive”.

The values above are taken from US4267175A, “Benzamide derivatives” (Beecham Group Limited, priority 1976, dated 1981).
